Reference: patent publication US9481669B2, “Pladienolide pyridine compounds and methods of use” (Eisai R&D Management Co., Ltd., priority 2014, dated 2016)

Experiments:
[1] = test system: Nalm-6 SF3B1^K700E isogenic cells (human pre B-cell line) xenograft; experiment: Nalm-6 SF3B1^K700E mouse xenograft efficacy model; format: in vivo, CB17-SCID mice; details: orally dosed daily for 14 days (QD×14 PO)
Protocol: The efficacy of Compound 2 was tested in a mouse xenograft model. Nalm-6 SF3B1^K700E isogenic cells (human pre B-cell line, 10×10^6 cells) were subcutaneously implanted into the flank of female CB17-SCID mice. Mice were treated with Compound 2 (10% ethanol, 5% TWEEN-80, 85% saline) or vehicle control. The animals were orally dosed daily for 14 days (QD×14 PO) at the amounts indicated in FIG. 2 and were monitored until they reached either of the following endpoints: 1) excessive tumor volume measured three times a week (tumor volume calculated by using the ellipsoid formula: (length×width^2)/2); or 2) development of any health problems such as paralysis or excessive body weight loss. All animal studies were carried out according to the H3 Biomedicine Guide for the Care and Use of Laboratory Animals.
The efficacy of Compound 1 was tested in a mouse xenograft model. […] The animals were orally dosed daily for 14 days (QD×14 PO) with 7.5 mg/kg or 10 mg/kg Compound 1 or vehicle and were monitored until they reached either of the following endpoints: 1) excessive tumor volume measured three times a week (tumor volume calculated by using the ellipsoid formula: (length×width^2)/2); or 2) development of any health problems such as paralysis or excessive body weight loss. […]

[2] = test system: alternative splicing in Nalm-6 isogenic cells; experiment: Alternative splicing modulation (nCounter Nanostring analysis); format: cell-based, human; details: 10×GI50 for 6 hours
Protocol: The “+” and “−” indicate positive or negative values, respectively, in the shade key, which indicates the varying levels of expression of the different splice junctions.
The modulation of alternative splicing for E7107 and Compound 2 was determined using the nCounter® analysis system (NanoString Techologies, Inc., Seattle, Wash.). Nalm-6 isogenic cells were treated with Compound 2 or E7107 (obtained from Eisai, Inc.) at 10×GI50 for 6 hours. RNA was isolated using RiboPure™ RNA purification kit (Ambion®) and used for analysis. The RNA was retrotranscribed according to the instructions of the SuperScript® VILO™ cDNA synthesis kit (Invitrogen™) and 0.04 μl of cDNA was used for qPCR.

[3] = test system: Panc 05.04 cancer cells (SF3B1^MUT) vs BXPC3, HPAFII, PANC0403, PANC1005, CFPAC1 and MIAPACA2; experiment: Cellular viability assay, mutant vs wild-type SF3B1 pancreatic cancer cell lines; format: cell-based; details: 72 hours at 37° C., 384-well plate
Protocol: To assess the viability of Panc 05.04 cancer cells (SF3B1^MUT) (Q699H and K700E mutations in SF3B1) in the presence of Compound 2, cells were seeded at 750 cells per well in a 384-well plate and treated with Compound 2 at the concentrations indicated in FIG. 4 for 72 hours at 37° C. The relative number of viable or apoptotic cells were measured by luminescence using CELLTITER-GLO® luminescent Cell Viability Assay (Promega).

SMILES | efficacy / tumor growth in xenograft mouse model [1] | splicing modulation profile [2] | differential cellular lethality, mutant vs wild-type SF3B1 pancreatic cancer cell lines [3]
C/C(=C\C=C\[C@@H](C)c1ccccn1)[C@H]1OC(=O)C[C@H](O)CC[C@@](C)(O)[C@@H](OC(=O)N2CCN(C3CCCCCC3)CC2)/C=C/[C@@H]1C [Compound 1, (2S,3S,6S,7R,10R,E)-7,10-dihydroxy-3,7-dimethyl-12-oxo-2-((R,2E,4E)-6-(pyridin-2-yl)hepta-2,4-dien-2-yl)oxacyclododec-4-en-6-yl 4-cycloheptylpiperazine-1-carboxylate] | efficacious when administered via the oral route and reduced tumor growth | – | –
C/C(=C\C=C\[C@@H](C)c1ccccn1)[C@H]1OC(=O)C[C@H](O)CC[C@@](C)(O)[C@@H](OC(=O)N2CCN(C)CC2)/C=C/[C@@H]1C [Compound 2, (2S,3 S,6S,7R,10R,E)-7,10-dihydroxy-3,7-dimethyl-12-oxo-2-((R,2E,4E)-6-(pyridin-2-yl)hepta-2,4-dien-2-yl)oxacyclododec-4-en-6-yl 4-methylpiperazine-1-carboxylate] | efficacious when administered via the oral route and reduced tumor growth | distinct from the profile of E7107 | differential cellular lethality in the mutant SF3B1 pancreatic cancer cell line over wild-type SF3B1 pancreatic cancer cell lines
